The results in this text go back to patent US12577213B2 (NINGBO COMBIREG PHARMACEUTICAL TECHNOLOGY CO., LTD., priority 2020, dated 2026).

Read-outs that look alike come from different tables or passages of the source. Where only a bound is given, the exact number is not on record here.

One data set relates to HS 578T (breast cancer). The experiment in a line: NCI method SRB growth inhibition, HS 578T. Conditions: Homo sapiens, HS578T, treated 48 hours, SRB stain. The class given is cell-based. From the text:
(§1) In this embodiment, the method of National Cancer Institute (NCI) was used to evaluate the anti-tumor activity of the embodiment compounds in the present disclosure. Nine representative cell lines were selected for activity evaluation, including A549 (non-small cell lung cancer), HCT116 (colon cancer), SF295 (central nervous system tumor), LOX-IMVI (melanoma), 786-0 (renal cancer), K562 (leukemia), PC-3 (prostate cancer), OVCAR-3 (ovarian cancer) and HS 578T (breast cancer).
(§2) The specific method was as follows: 60 tumor cell lines of 9 kinds of human cancers were used to evaluate the inhibitory activity of the compound in vitro. A test group, a parallel control group and a vehicle control group were set up. The parallel control group was fixed immediately before the compound was added; the cells in the test group were fixed after being treated with the compound for 48 hours; the vehicle control group was fixed after an equal volume of complete medium was added for 48 hours. Sulforhodamine B (SRB) was used to stain, and the OD value was measured at a wavelength of 515 nm. The specific calculation method was as follows: the OD value of the parallel control group was recorded as Tz, the OD value of the vehicle control group was recorded as C, and the OD value of the test group was recorded as (Ti). If Ti≥Tz, it means that the cells still grow after the drug was added, and the growth rate %=[(Ti−Tz)/(C−Tz)]×100; if Ti<Tz, it means that the cells are killed after the drug was added, and the growth rate %=[(Ti−Tz)/Tz]×100. Three parameters were used to evaluate the anti-tumor activity of compounds in this method: 50% growth inhibitory concentration (GI50): i.e. the compound concentration at [(Ti−Tz)/(C−Tz)]×100=50; complete growth inhibitory concentration (TGI): the compound concentration at Ti=Tz; the drug concentration required to kill 50% of the cells (LC50): i.e. the compound concentration at [(Ti−Tz)/Tz]×100=−50.
(§3) The inhibitory activities of the embodiment compounds on nine representative tumor cell lines were listed in detail in Table 1. Wherein, the GI50 value means “50% growth inhibition rate”, that is, the concentration of the compound to be tested when it can inhibit […] of cell growth; “ND” means not detected.

The test system of a further data set is OVCAR-3 (ovarian cancer). As to the kind of experiment: NCI method SRB growth inhibition, OVCAR-3. The class given is cell-based. Conditions: Homo sapiens; OVCAR-3, treated 48 hours, SRB stain.
Source text: as §1, §2, §3

In another data set the test system is PC-3 (prostate cancer). The experiment in a line: NCI method SRB growth inhibition, PC-3. The class given is cell-based. Particulars: Homo sapiens; PC-3, treated 48 hours, SRB stain.
Source text: as §1, §2, §3

The subject of a further data set is 786-0 (renal cancer). As to the kind of experiment: NCI method SRB growth inhibition, 786-0. The class given is cell-based. Conditions: Homo sapiens; 786-0, treated 48 hours, SRB stain.
Source text: as §1, §2, §3

For a further data set, the system named is LOX-IMVI (melanoma). The experiment in a line: NCI method SRB growth inhibition, LOX-IMVI. The class given is cell-based. Particulars: Homo sapiens, treated 48 hours, SRB stain.
Source text: as §1, §2, §3

In the next data set the test system is K562 (leukemia). As to the kind of experiment: NCI method SRB growth inhibition, K562. The class given is cell-based. Particulars: Homo sapiens; K562, treated 48 hours, SRB stain.
Source text: as §1, §2, §3

Another data set concerns HCT116 (colon cancer). As to the kind of experiment: NCI method SRB growth inhibition, HCT116. The class given is cell-based. Particulars: Homo sapiens, HCT-116; HCT116, treated 48 hours, SRB stain.
Source text: as §1, §2, §3

Data set [1] concerns A549 (non-small cell lung cancer). The experiment in a line: NCI method SRB growth inhibition, A549. The class given is cell-based. Particulars: Homo sapiens; A549, treated 48 hours, SRB stain.
Source text: as §1, §2, §3

Data set [2] concerns SF295 (central nervous system tumor). The experiment in a line: NCI method SRB growth inhibition, SF295. Conditions: Homo sapiens, SF-295; SF295, treated 48 hours, SRB stain. The class given is cell-based.
Source text: as §1, §2, §3

Data set [3] in a line: Liver microsomes stability. The class given is in vitro ADME, human. Particulars: 1 μM compound, 1 mg/mL human liver microsomes, 1 mM NADPH; for half-life at 1 μM: read-out: T½ of HLM. As to the method:
The compound to be tested with final concentration of 1 μM was incubated with 1 mg/mL of human liver microsomes and 1 mM of NADPH, and a group without NADPH was set as a negative control. The reaction mixture was quenched with methanol at five time points of 0, 5, 15, 30 and 60 min, respectively, then centrifuged at 2500 rpm for 20 min to precipitate proteins, and the resulting supernatant was analyzed by LC-MS/MS. The data was analyzed and the k value and half-life T1/2 was calculated, T1/2(min)=0.693/k.
Wherein, compounds a, b and c are active compounds disclosed in patent No. ZL201610154581.3.

Take `[2H]C([2H])([2H])Oc1cc(C(=O)Nc2cc3c(cc2Oc2cc(C)cc(C)c2)C(=O)N[C@@H](CC(=O)N(C)O)C(=O)N3)c(Br)c(OC([2H])([2H])[2H])c1OC([2H])([2H])[2H]` [Compound 31]: the GI50 in the data set on HS 578T (breast cancer) was 8.6 nM; in the data set with OVCAR-3 (ovarian cancer), below 5 nM; in the data set with PC-3 (prostate cancer), below 5 nM; in the data set with 786-0 (renal cancer), 28.1 nM; in the data set on LOX-IMVI (melanoma), below 5 nM; with K562 (leukemia), below 5 nM. Besides, the GI50 with HCT116 (colon cancer) is 17 nM; in data set [1], below 5 nM; in data set [2], 58 nM. Also, in data set [3], the half-life at 1 μM was 43.3 min. The compound also had a microsomal CLint at 1 μM in data set [3] (human, human liver microsomes) of 16 µL/min/mg.
Turning to `[2H]C([2H])([2H])Oc1cc(C(=O)Nc2cc3c(cc2Oc2cc(C)cc(C)c2)C(=O)N[C@@H](CC(=O)N(CC)CC)C(=O)N3)c(Br)c(OC([2H])([2H])[2H])c1OC([2H])([2H])[2H]` [Compound 4, (S)-2-bromo-N-[3-[2-(diethylamino)-2-oxoethyl]-7-(3,5-dimethylphenoxy)-2,5-dioxo-2,3,4,5-tetrahydro-1H-benzo[e][1,4]diazepin-8-yl]-3,4,5-tris(trideuteromethoxy)benzamide], the GI50 in the data set on OVCAR-3 (ovarian cancer) was below 5 nM; with PC-3 (prostate cancer), below 5 nM; in the data set on 786-0 (renal cancer), 11.9 nM; in the data set with LOX-IMVI (melanoma) it was below 5 nM; in the data set with K562 (leukemia), below 5 nM; with HCT116 (colon cancer), below 5 nM. Moreover, the GI50 in data set [1] is below 5 nM; in data set [2] it was 6 nM. The microsomal CLint at 1 μM in [3] is 20.5 µL/min/mg. The half-life at 1 μM in data set [3] (human, human liver microsomes) turned out to be 33.8 min.
As to `[2H]C([2H])([2H])N1C(=O)c2cc(Oc3cc(C)cc(C)c3)c(NC(=O)c3cc(OC)c(OC)c(OC)c3Cl)cc2NC(=O)[C@@H]1CC(=O)N(C([2H])([2H])C([2H])([2H])[2H])C([2H])([2H])C([2H])([2H])[2H]` [Compound 19, (S)-2-chloro-N-[3-[2-[bis(pentadeuteroethyl)amino]-2-oxoethyl]-7-(3,5-dimethylphenoxy)-4-(trideuteromethyl)-2,5-dioxo-2,3,4,5-tetrahydro-1H-benzo[e][1,4]diazepin-8-yl]-3,4,5-trimethoxybenzamide], the GI50 with HS 578T (breast cancer) was 80.7 nM; in the data set with OVCAR-3 (ovarian cancer), 6.2 nM; in the data set on PC-3 (prostate cancer) it was below 5 nM; in the data set with 786-0 (renal cancer), 19.7 nM; with LOX-IMVI (melanoma), below 5 nM; in the data set with K562 (leukemia), below 5 nM. Moreover, the GI50 was found to be 5 nM with HCT116 (colon cancer), 5.9 nM in [1] and 11.8 nM in data set [2]. For the same compound, the microsomal CLint at 1 μM in data set [3] was found to be 21.1 µL/min/mg. For the same compound, the half-life at 1 μM in data set [3] (human, human liver microsomes) turned out to be 32.9 min.
As for `[2H]C([2H])([2H])Oc1c(OC)cc(C(=O)Nc2cc3c(cc2Oc2cc(C)cc(C)c2)C(=O)N[C@@H](CC(=O)N(CC)CC)C(=O)N3)c(Cl)c1OC` [Compound 2, (S)-2-chloro-N-[3-[2-(diethylamino)-2-oxoethyl]-7-(3,5-dimethylphenoxy)-2,5-dioxo-2,3,4,5-tetrahydro-1H-benzo[e][1,4]diazepin-8-yl]-3,5-dimethoxy-4-(trideuteromethoxy)benzamide], the GI50 with HS 578T (breast cancer) is 30.8 nM; with OVCAR-3 (ovarian cancer) it was 6.1 nM; in the data set with PC-3 (prostate cancer), 5.5 nM; with 786-0 (renal cancer), 11.8 nM; with LOX-IMVI (melanoma) it was below 5 nM; in the data set with K562 (leukemia) it was below 5 nM. Besides, the concentration for 50% growth inhibition (GI50) with HCT116 (colon cancer) is below 5 nM; in data set [1], 13.1 nM; in data set [2], 7.9 nM. The same compound registered a microsomal CLint at 1 μM in [3] of 32 µL/min/mg. For the same compound, the half-life at 1 μM in [3] (human, human liver microsomes) amounted to 21.7 min.
For `[2H]c1c(C)c([2H])c(Oc2cc3c(cc2NC(=O)c2cc(OC)c(OC)c(OC)c2Cl)NC(=O)[C@H](CC(=O)N(CC)CC)NC3=O)c([2H])c1C` [Compound 24, (S)-2-chloro-N-[3-[2-(diethylamino)-2-oxoethyl]-7-(3,5-dimethyl-2,4,6-trideuterophenoxy)-2,5-dioxo-2,3,4,5-tetrahydro-1H-benzo[e][1,4]diazepin-8-yl]-3,4,5-trimethoxybenzamide], the GI50 in the data set on HS 578T (breast cancer) turned out to be 188 nM; with OVCAR-3 (ovarian cancer) it was 87.6 nM; with PC-3 (prostate cancer) it was 39.5 nM; with 786-0 (renal cancer), 276 nM; in the data set on LOX-IMVI (melanoma), 65.8 nM; in the data set with K562 (leukemia), 25.5 nM. For the same compound, the GI50 in the data set with HCT116 (colon cancer) worked out at 123 nM; in data set [1] it was 207 nM; in data set [2] it was 135 nM. The microsomal CLint at 1 μM in [3] came to 28.4 µL/min/mg. Also, in [3] (human, human liver microsomes), the half-life at 1 μM came out at 24.4 min.
On to `[2H]C([2H])([2H])N(C(=O)C[C@@H]1NC(=O)c2cc(Oc3cc(C)cc(C)c3)c(NC(=O)c3cc(OC)c(OC)c(OC)c3Br)cc2NC1=O)C([2H])([2H])[2H]` [Compound 22, (S)-2-bromo-N-[3-[2-[bis(trideuteromethyl)amino]-2-oxoethyl]-7-(3,5-dimethylphenoxy)-2,5-dioxo-2,3,4,5-tetrahydro-1H-benzo[e][1,4]diazepin-8-yl]-3,4,5-trimethoxybenzamide], for which the GI50 was below 5 nM in the data set on OVCAR-3 (ovarian cancer); below 5 nM in the data set with PC-3 (prostate cancer); 12.6 nM with 786-0 (renal cancer); below 5 nM with LOX-IMVI (melanoma); below 5 nM in the data set with K562 (leukemia); 7.1 nM with HCT116 (colon cancer). Besides, the GI50 was below 5 nM in data set [1] and 10 nM in [2]. This compound also had a microsomal CLint at 1 μM in data set [3] of 4.6 µL/min/mg. Also, the half-life at 1 μM in data set [3] (human, human liver microsomes) amounted to 151 min.
The compound `CCN(CC)C(=O)C[C@@H]1NC(=O)c2cc(Oc3cc(C)cc(C)c3)c(NC(=O)c3cc(OC)c(OC)c(OC)c3Cl)cc2NC1=O` [c, reference compound] returned a microsomal CLint at 1 μM in data set [3] of 26.5 µL/min/mg. The half-life at 1 μM in data set [3] (human, human liver microsomes) turned out to be 26.2 min.
As for `[2H]C([2H])([2H])N(C(=O)C[C@H]1C(=O)Nc2cc(NC(=O)c3cc(OC)c(OC)c(OC)c3Br)c(Oc3cc(C)cc(C)c3)cc2C(=O)N1C)C([2H])([2H])[2H]` [Compound 15, (S)-2-bromo-N-[3-[2-[bis(trideuteromethyl)amino]-2-oxoethyl]-7-(3,5-dimethylphenoxy)-4-methyl-2,5-dioxo-2,3,4,5-tetrahydro-1H-benzo[e][1,4]diazepin-8-yl]-3,4,5-trimethoxybenzamide], the GI50 in the data set on OVCAR-3 (ovarian cancer) is below 5 nM; in the data set on PC-3 (prostate cancer), below 5 nM; in the data set with 786-0 (renal cancer), 6.2 nM; in the data set with LOX-IMVI (melanoma), below 5 nM; with K562 (leukemia) it was below 5 nM; in [1], below 5 nM. The compound further came in with a GI50 in data set [2] below 5 nM. The same compound yielded a microsomal CLint at 1 μM in data set [3] of 10.8 µL/min/mg. The half-life at 1 μM in data set [3] (human, human liver microsomes) stood at 64.2 min.
`CCN(CC)C(=O)C[C@@H]1NC(=O)c2cc(Oc3cc(C)cc(C)c3)c(NC(=O)c3cc(OC)c(OC)c(OC)c3Br)cc2NC1=O` [b, reference compound] displayed a microsomal CLint at 1 μM in data set [3] of 26.4 µL/min/mg. In addition, the half-life at 1 μM in data set [3] (human, human liver microsomes) stood at 26.3 min.
